Assay results reported in publication PMC13197777, “Distinct 2-phenylimidazo[1,2-a]pyridine derivatives that inhibit breast cancer cell proliferation identified as AHR ligands” (iScience, 2026).
Where two headings read alike, the source gives them in different places.

What was measured:
CTC-ITB-01 cells [1] = experiment: Clonogenic assay of CTC-ITB-01 cells; assay type: cell-based, human; settings: CTC-ITB-01, two weeks of treatment
Description: (§1) Cells were seeded at a density of 1–2×10^3 cells/well in a 6-well plate and treated with increasing concentrations of the X compounds for 14–21 days. Medium and compounds were renewed every 7 days. The experiments were terminated by fixing the cells with methanol and the colonies formed were visualized after staining with 0.5% crystal violet (w/v) in 20% methanol (v/v). Plates were photographed and the area covered by the colonies was calculated using the ColonyArea Plugin for Fiji (RRID:SCR_003070).[20]

CTC-ITB-01 cells [2] = experiment: cells; assay type: cell-based; settings: for CC50: Homo sapiens, read-out: LC50
Description: LC50 values were measured using the CyQUANT NF Cell Proliferation Assay Kit (Thermo Fisher). CTC-ITB-01 cells were plated at a density of 2x10^3 cells/well in 96-well plates and treated the following day with serial dilutions of the test compounds. After incubation for the indicated time, cells were stained with CyQUANT dye according to the manufacturer’s protocol and incubated at 37°C for 30 min. Fluorescence was measured using a Tecan Infinite M Nano+ (excitation: 485 nm; emission: 530 nm). For the calculation of the LC50 the fluorescence was plotted against the Log10 of the inhibitor concentration in nM as x values and the LC50 values were calculated with 95% confidence intervals (n = 4).

MCF-7 luc Y537S = experiment: Clonogenic assay (clonal expansion), MCF-7 cells with Y537S ER mutation; assay type: cell-based; settings: Homo sapiens, MCF7, 336 h
Description: as §1

[3] = test system: MCF-7 luc D538G and MCF-7 luc Y537S; experiment: Clonogenic assay, cells expressing the two mutant ERs (range over both); assay type: cell-based; settings: Homo sapiens, MCF7, read-out: IC50 clonal expansion in cells expressing the two mutant ERs
Description: as §1

ERα in MCF-7 cells = experiment: Immunoblot of ERα in MCF-7 cells; assay type: cell-based, human; settings: MCF-7, 48 h, increasing concentrations up to 1 μM
Description: To determine the relative expression of proteins by Western blotting, cells were first washed with ice-cold phosphate buffered saline (PBS). Subsequently, they were lysed in ice-cold NP40 lysis buffer (1%NP-40, 50 mM Tris-HCl, pH 8.0, 150 mM NaCl, 5 mM Ethylenediaminetetraacetic acid [EDTA], 1 mM PMSF) on ice. DNA was degraded by sonification (five pulses at 50 amplitudes). Protein concentration was determined, and equal amounts of protein were separated on a 9% SDS-PAGE gel. The proteins were transferred onto nitrocellulose membrane by a standard Western blotting protocol and the membranes were incubated with the following antibodies: ERα (Santa Cruz Biotechnology, sc-8002, RRID: AB_627558) and PCNA (Santa Cruz Biotechnology, sc-56, RRID: AB_628110), followed by incubation with HRP labeled Goat anti-mouse Immunoglobulins (DAKO, P0447, RRID: AB_2617137).

[4] = test system: AHR target genes CYP1A1, CYP1B1, ALDH3A1; settings: human, 16 h, 1 µM
[5] = Compound stability in aqueous environment; assay type: physicochemical; settings: 12.5 μM, HEPES pH 7.4/acetonitrile 3:2, 1% DMSO, 21 °C, 5 days
Description: The stability of the compounds was evaluated at a concentration of 12.5 μM in a 3:2 mixture of buffer (HEPES, 0.1 M, pH 7.4) and acetonitrile, with 1% DMSO. Acetonitrile was added because the concentration of 12.5 μM exceeded the thermodynamic solubility of the compounds in the buffer. This addition thereby prevented the formation of precipitates and a gradual decrease in compound concentration during the measurement. The resulting solution was stirred at 21 °C in a sealed vial (crimp neck vials, 5 mL, clear (Cat. No. 548-0611A) in combination with natural rubber septa (548-0565A) and aluminum crimp caps (548-3278A), VWR International) for 5 days. […] The AUC measured was subsequently plotted as a function of the incubation time (Figure S3). No signs of decomposition could be observed over the given time.

AHR-Hsp90-XAP2 = biological target: T1, AHR-Hsp90-XAP2 (Homo sapiens, UniProt P35869); experiment: Thermal stability measurements (nano-DSF); assay type: binding; settings: 2.5 μM protein, 12.5 μM compound
T1 construct: made in house
Description: Thermal denaturation experiments of AHR complexes in the presence of compounds were performed using a Tycho NT.6 instrument (NanoTemper Technologies). Protein samples were prepared as previously described[67] and subsequently diluted in the buffer containing 20 mM Bis-Tris–HCl pH 7.0, 50 mM NaCl, 10 mM KCl, 10 mM MgCl2, 20 mM Na2MoO4 and 2 mM β-mercaptoethanol to a final protein concentration of 2.5 μM. Compound stock solutions were prepared at 20 mM in DMSO and added to the protein samples to yield a final concentration of 12.5 μM. For control measurements, DMSO was added to a final concentration of 5% (v/v). Following ligand or DMSO addition, the samples were gently mixed and incubated at room temperature for 10 min to allow equilibration. Thermal denaturation profiles were acquired over a temperature range of 35°C–95°C, with a heating rate of 1 °C per min. Fluorescence was monitored at emission wavelengths of 330 nm and 350 nm, and the data were analyzed as the first derivative of the fluorescence ratio (F330/F350) as a function of temperature. All experiments were performed in triplicate, and data were analyzed using the Tycho NT.6 software (NanoTemper Technologies) according to the manufacturer’s recommendations.

[6] = test system: ERα target genes (PGR, TFF1, PDZK1, GREB1); experiment: Quantitative RT-PCR of ER target genes in MCF-7 cells; settings: MCF-7, 1 μM, absence and presence of 10 nM E2, 24 h

T1 sequence (P35869 11-437 limits assumed): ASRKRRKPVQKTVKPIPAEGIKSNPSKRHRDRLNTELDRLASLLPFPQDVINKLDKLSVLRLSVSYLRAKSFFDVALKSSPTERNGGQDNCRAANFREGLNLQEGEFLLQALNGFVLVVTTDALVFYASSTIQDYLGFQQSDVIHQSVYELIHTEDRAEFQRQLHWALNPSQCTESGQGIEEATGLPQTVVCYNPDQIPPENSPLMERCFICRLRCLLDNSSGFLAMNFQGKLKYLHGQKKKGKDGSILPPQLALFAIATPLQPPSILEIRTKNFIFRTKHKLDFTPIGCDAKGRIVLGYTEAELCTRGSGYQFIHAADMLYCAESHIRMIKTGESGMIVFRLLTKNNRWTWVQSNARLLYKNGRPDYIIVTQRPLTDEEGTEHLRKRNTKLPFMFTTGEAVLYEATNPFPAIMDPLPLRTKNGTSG
T1 sequence (P08238 whole entry partner): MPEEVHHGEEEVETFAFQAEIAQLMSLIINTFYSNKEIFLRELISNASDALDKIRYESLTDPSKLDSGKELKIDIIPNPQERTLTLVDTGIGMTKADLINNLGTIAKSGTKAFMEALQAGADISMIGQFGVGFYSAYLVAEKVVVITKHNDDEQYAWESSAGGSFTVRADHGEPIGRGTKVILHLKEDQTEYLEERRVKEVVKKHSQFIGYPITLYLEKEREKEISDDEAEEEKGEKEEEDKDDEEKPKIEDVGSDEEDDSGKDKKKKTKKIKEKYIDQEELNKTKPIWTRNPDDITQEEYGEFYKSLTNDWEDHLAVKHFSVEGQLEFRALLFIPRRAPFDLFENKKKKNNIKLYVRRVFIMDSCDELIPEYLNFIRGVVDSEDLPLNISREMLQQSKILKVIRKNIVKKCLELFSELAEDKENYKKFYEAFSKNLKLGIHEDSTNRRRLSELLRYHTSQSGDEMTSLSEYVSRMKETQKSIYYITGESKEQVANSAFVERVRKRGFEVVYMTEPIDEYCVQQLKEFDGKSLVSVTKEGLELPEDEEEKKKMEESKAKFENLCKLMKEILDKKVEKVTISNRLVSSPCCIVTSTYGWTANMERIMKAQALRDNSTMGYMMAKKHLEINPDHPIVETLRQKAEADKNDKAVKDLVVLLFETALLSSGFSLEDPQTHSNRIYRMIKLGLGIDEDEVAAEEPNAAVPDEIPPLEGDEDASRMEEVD
T1 sequence (O00170 whole entry partner): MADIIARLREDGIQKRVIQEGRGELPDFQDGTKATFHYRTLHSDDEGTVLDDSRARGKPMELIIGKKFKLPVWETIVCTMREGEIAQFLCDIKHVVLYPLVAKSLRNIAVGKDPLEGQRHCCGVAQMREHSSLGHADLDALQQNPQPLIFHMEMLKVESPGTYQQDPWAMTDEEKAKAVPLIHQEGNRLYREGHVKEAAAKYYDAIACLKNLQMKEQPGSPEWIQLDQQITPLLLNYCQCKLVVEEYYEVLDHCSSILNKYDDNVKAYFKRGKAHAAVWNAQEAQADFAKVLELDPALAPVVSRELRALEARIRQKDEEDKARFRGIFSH

SMILES | inhibition of clonal expansion compared to fulvestrant (CTC-ITB-01 cells [1]) | LC50 fold lower compared to fulvestrant (CTC-ITB-01 cells [2]; CTC-ITB-01, 48 h and 120 h) [fold] | CC50 (CTC-ITB-01 cells [2]; 48 h) [nM] | CC50 (CTC-ITB-01 cells [2]; 120 h) [nM] | IC50 (MCF-7 luc Y537S; read-out: IC50 clonal expansion, Figure 1B, MCF-7 luc Y537S, absence of E2, 14 days) [nM] | IC50 (MCF-7 luc Y537S; read-out: IC50 clonal expansion, Figure 1C, MCF-7 luc Y537S + 10 nM E2, 14 days) [nM] | IC50 (MCF-7 luc Y537S; read-out: IC50 clonal expansion, Figure 1D, MCF-7 luc Y537S, absence of E2, 14 days) [nM] | IC50 (MCF-7 luc Y537S; read-out: IC50 clonal expansion, Figure 1E, MCF-7 luc Y537S + 10 nM E2, 14 days) [nM] | IC50 [3] [nM] | ERα destabilization (immunoblot) (ERα in MCF-7 cells) | expression of AHR target genes (RT-PCR) [4] | stability in aqueous environment [5] | thermal stabilization of AHR (nano-DSF) (AHR-Hsp90-XAP2) | expression of ERα target genes (RT-PCR) [6]
Fc1ccc(-c2cn3cc(C(F)(F)F)cc(Cl)c3n2)cc1 [X15695] | about three orders of magnitude more potent | 20 | 400 | 300 | 7.82 | 6.41 | 7.82 | 6.41 | 7.82 to 11.6 | most proficient in destabilizing ERα | enhanced the transcriptional activity of the AHR target genes in both MCF-7 and T47D cells | no obvious decomposition detected | bona fide AHR ligands | 
Cc1cc(Cl)c2nc(-c3ccc(F)cc3)cn2c1 [X19724] |  |  |  |  |  |  |  |  |  | most proficient in destabilizing ERα |  |  | bona fide AHR ligands | 
Cc1cc(Cl)c2nc(-c3ccccc3)cn2c1 [X19728] |  |  |  |  |  |  |  |  |  | no significant ERα destabilization |  |  | bona fide AHR ligands | not significant in the presence of E2
